Source: patent publication US4629793A, “2,3-di-substituted-5,6-dihydroimidazo [2,1-b] thiazole, its salts, production thereof and anti-inflammatory agent containing the same” (Toyo Jozo Kabushiki Kaisha, priority 1981, dated 1986)

tested on: not listed separately; experiment: Anti-carrageenin edema action (oral, hind foot edema); assay type: in vivo, Wister rats; conditions: Rattus norvegicus, po, 3 h, minimum dose with significant inhibition of edema 3 hours after carrageenin injection; p.o. one hour before carrageenin
Description: Fasting Wister rats, male, 5-6 weeks in age, five in one group, were injected subcutaneously in the sole of the caudal foot with 1% lambda carrageenin (0.05 ml), and the increase in the volume of the foot was measured at alliquot times. Then the compound of the invention was suspended in 0.3% CMC and administered orally one hour before carrageenin injection. 0.3% CMC alone was administered as a control.

Molecule | minimal effective dose [mg/kg]
COc1cc(OC)c(NC(=O)C2=C(C)N3CCN=C3S2)cc1Cl [Compound 21] | 100
CC1=C(C(=O)Nc2ccc(Cl)cc2Cl)SC2=NCCN21 [Compound 32] | 50
CC1=C(C(=O)Nc2cc(Cl)ccc2Cl)SC2=NCCN21 [Compound 7, 2-(2,5-dichlorophenylcarbamoyl)-3-methyl-5,6-dihydroimidazo [2,1-b] thiazole] | 100
CC1=C(C(=O)Nc2ccccc2)SC2=NCCN21 [Compound 1, 2-phenylcarbamoyl-3-methyl-5,6-dihydro-imidazo [2,1-b] thiazole] | 100
CC1=C(C(=O)Nc2ccccc2)SC2=NCCN21.Cl [Compound 2, 2-phenylcarbamoyl-3-methyl-5,6-dihydro-imidazo [2,1-b] thiazole hydrochloride] | 50
CC1=C(C(=O)Nc2ccc(Br)cc2)SC2=NCCN21 [Compound 16] | 50
CC1=C(C(=O)Nc2ccc(Cl)c(Cl)c2)SC2=NCCN21.Cl [Compound 15, 2-(3,4-dichlorophenylcarbamoyl)-3-methyl-5,6-dihydroimidazo [2,1-b] thiazole hydrochloride] | < 25
CC1=C(C(=O)Nc2ccccc2Cl)SC2=NCCN21.Cl [Compound 4, 2-(2-chlorophenylcarbamoyl)-3-methyl-5,6-dihydroimidazo [2,1-b] thiazole hydrochloride] | < 25
CC1=C(C(=O)Nc2ccc(Cl)cc2C)SC2=NCCN21 [Compound 13] | 50
CCc1ccccc1NC(=O)C1=C(C)N2CCN=C2S1 [Compound 11] | 50
CC1=C(C(=O)Nc2ccc(Cl)cc2)SC2=NCCN21 [Compound 5] | 50
CC1=C(C(=O)Nc2ccc(C)cc2Cl)SC2=NCCN21 [Compound 10] | 50
COc1ccc(Cl)cc1NC(=O)C1=C(C)N2CCN=C2S1 [Compound 22] | 100
CC1=C(C(=O)Nc2c(Cl)cc(Cl)cc2Cl)SC2=NCCN21 [Compound 19] | 100
CC1=C(C(=O)Nc2ccc(Cl)c(Cl)c2)SC2=NCCN21 [Compound 30] | < 25
CCOc1ccc(NC(=O)C2=C(C)N3CCN=C3S2)cc1 [Compound 14] | 50

same assay, conditions: minimum dose with significant inhibition of edema 3 hours after carrageenin injection; p.o. one hour before carrageenin

Molecule | Minimum effective dose
CC1=C(C(=O)Nc2ccc(Cl)cc2)SC2=NCCN21 [Compound 6] | < 25 mg/kg, p.o.

tested on: not listed separately; experiment: Acute toxicity, oral; conditions: mouse, in vivo, mice, p.o.

Molecule | LD50 [mg/kg]
CC1=C(C(=O)Nc2ccc(Cl)c(Cl)c2)SC2=NCCN21.Cl [Compound 15, 2-(3,4-dichlorophenylcarbamoyl)-3-methyl-5,6-dihydroimidazo [2,1-b] thiazole hydrochloride] | > 4000

tested on: not listed separately; experiment: Adjuvant arthritis (chronic inflammation), oral; assay type: in vivo; conditions: administered orally, rats

Molecule | inhibited adjuvant arthritis, at a dose of [mg/kg]
CC1=C(C(=O)Nc2ccc(Cl)c(Cl)c2)SC2=NCCN21.Cl [Compound 15, 2-(3,4-dichlorophenylcarbamoyl)-3-methyl-5,6-dihydroimidazo [2,1-b] thiazole hydrochloride] | 1 to 10

tested on: not listed separately; experiment: Analgesic action, acetic acid stretching method, oral; assay type: in vivo; conditions: administered orally in mice

Molecule | analgesic action, at a dose of [mg/kg]
CC1=C(C(=O)Nc2ccc(Cl)c(Cl)c2)SC2=NCCN21.Cl [Compound 15, 2-(3,4-dichlorophenylcarbamoyl)-3-methyl-5,6-dihydroimidazo [2,1-b] thiazole hydrochloride] | 25

tested on: bovine serum albumin; experiment: not given; conditions: known agents, stated "in general"; cited from earlier work

Molecule | effect on heat denaturation of bovine serum albumin
c1ccc([C@H]2CN3CCSC3=N2)cc1 [levamisol] | do not inhibit the heat denaturation of bovine serum albumin but rather stimulate the protein heat denaturation
Cn1cnc([N+](=O)[O-])c1Sc1ncnc2nc[nH]c12 [azathioprine] | do not inhibit the heat denaturation of bovine serum albumin but rather stimulate the protein heat denaturation
CC(C)(S)[C@@H](N)C(=O)O [D-penicillamine] | do not inhibit the heat denaturation of bovine serum albumin but rather stimulate the protein heat denaturation
gold sodium thiomalate | do not inhibit the heat denaturation of bovine serum albumin but rather stimulate the protein heat denaturation
